ChEMBL document CHEMBL1201862, “PubChem BioAssay data set” (2004)
The source made the active and inactive calls.

Columns and labels:
cells [1] = format: functional
Prothrombin = Prothrombin (Homo sapiens, UniProt P00734); assay: Thrombin 1536 HTS Dose Response Confirmation. [Related pubchem assays: 1046 (Thrombin 1536 HTS; hits were confirmed in this assay)]; format: functional
P388/ADR = assay: cells; format: functional; details: Mus musculus
P388 = assay: cells; format: functional; details: Mus musculus
cells [2] = format: functional, cell-based
cells [3] = format: functional, cell-based; remark: listed apart in the source
[4] = target: T1, Trace amine-associated receptor 1 (Homo sapiens, UniProt Q96RJ0); assay: Counterscreen for agonists of the human trace amine associated receptor 1 (hTAAR1): Fluorescence-based cell-based high throughput dose response assay to identify hTAAR1 agonist that also desensitize TAAR1 receptor response.; format: functional
T1 sequence (Q96RJ0 whole entry): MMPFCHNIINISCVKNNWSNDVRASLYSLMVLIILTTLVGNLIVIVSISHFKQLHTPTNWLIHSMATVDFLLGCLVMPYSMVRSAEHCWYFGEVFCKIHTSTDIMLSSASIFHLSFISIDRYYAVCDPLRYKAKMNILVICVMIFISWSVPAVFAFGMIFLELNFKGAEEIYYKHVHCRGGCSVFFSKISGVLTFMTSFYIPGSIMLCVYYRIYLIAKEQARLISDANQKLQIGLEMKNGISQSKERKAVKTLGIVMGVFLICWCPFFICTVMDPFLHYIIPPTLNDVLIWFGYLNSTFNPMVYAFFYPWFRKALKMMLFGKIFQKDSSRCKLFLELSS

[5] = target: T1, Trace amine-associated receptor 1; assay: Fluorescence-based cell-based high throughput dose response assay to identify agonists of the human trace amine associated receptor 1 (TAAR1).; format: functional
[6] = Luminescence Cell-Based Dose Retest to Confirm Inhibitors of Cancer Stem Cells. [Related pubchem assays (depositor defined):AID2717, AID2721]; format: functional; details: Homo sapiens
[7] = inhibitors of intracellular T. cruzi replication, confirmation, NIH3T3 host cells, beta-gal luminescence (AID 2044); format: functional, cell-based;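 note: intracellular parasites grown in NIH/3T3 mouse fibroblasts as host cells; luminescent beta-galactosidase reporter signal from transgenic T. cruzi replicating inside host cells; inhibitors lower the luminescence signal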
[8] = cytotoxicity toward NIH3T3 fibroblasts, dose response, counter-screen, cell-based, ATP luminescence, mouse fibroblasts (AID 2010); format: functional;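 note: cells exposed to compound for about 90 hours before reading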
[9] = target: T2, Microphthalmia-associated transcription factor (Homo sapiens, UniProt O75030); assay: TRPM1 promoter luciferase signal decrease, dose response, MITF inhibitor project, cell-based, SK-MEL-5, cherry-picked, set 3 (AID 493073); format: functional
T2 sequence (O75030 whole entry): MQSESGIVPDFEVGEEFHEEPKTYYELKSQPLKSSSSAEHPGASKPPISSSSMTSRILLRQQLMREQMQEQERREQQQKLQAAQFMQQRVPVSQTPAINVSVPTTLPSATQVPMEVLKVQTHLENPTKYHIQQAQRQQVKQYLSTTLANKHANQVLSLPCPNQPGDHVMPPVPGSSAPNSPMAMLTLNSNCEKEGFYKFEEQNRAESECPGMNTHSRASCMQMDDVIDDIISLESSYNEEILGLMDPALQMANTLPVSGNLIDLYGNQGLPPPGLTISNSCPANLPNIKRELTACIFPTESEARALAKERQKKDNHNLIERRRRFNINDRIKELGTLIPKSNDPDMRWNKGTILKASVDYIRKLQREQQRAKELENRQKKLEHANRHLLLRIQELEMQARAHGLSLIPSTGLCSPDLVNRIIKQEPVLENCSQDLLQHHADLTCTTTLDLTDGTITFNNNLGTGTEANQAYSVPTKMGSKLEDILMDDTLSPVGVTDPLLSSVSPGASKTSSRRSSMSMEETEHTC

[10] = target: Glucose-6-phosphate 1-dehydrogenase (Homo sapiens, UniProt P11413); assay: human G6PD enzyme inhibitors, dose response, selectivity assay for P. falciparum G6PD inhibitor project, biochemical, fluorescence (AID 504792); format: functional
Protein skinhead-1 = target: T3, Protein skinhead-1 (Caenorhabditis elegans, UniProt P34707); format: functional
T3 sequence (P34707 whole entry): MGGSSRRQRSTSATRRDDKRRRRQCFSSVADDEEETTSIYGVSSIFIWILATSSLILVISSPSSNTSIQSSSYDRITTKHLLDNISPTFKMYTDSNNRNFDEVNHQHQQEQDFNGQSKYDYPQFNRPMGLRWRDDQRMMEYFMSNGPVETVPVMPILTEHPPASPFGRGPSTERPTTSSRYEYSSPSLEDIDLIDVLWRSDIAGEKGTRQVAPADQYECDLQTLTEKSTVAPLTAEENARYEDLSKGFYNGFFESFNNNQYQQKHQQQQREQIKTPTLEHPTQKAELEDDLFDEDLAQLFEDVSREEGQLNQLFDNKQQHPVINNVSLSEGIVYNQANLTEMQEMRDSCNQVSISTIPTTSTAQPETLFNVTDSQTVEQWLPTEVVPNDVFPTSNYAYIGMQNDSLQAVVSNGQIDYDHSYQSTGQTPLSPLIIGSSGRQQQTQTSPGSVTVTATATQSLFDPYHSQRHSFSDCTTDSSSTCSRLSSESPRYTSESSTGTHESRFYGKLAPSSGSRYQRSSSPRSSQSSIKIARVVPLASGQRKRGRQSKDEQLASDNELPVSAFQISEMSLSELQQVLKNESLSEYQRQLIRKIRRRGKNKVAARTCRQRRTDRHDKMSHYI

[11] = P. falciparum Dd2 growth inhibitors, dose response, SYBR Green, cherry-picked samples (AID 1159567); format: functional, cell-based
[12] = Luminescence Cell-Based Dose Confirmation HTS to Identify Inhibitors of Platelet Dense Granule Release. [Related pubchem assays: 1663 (Primary HTS), 1678 (Summary of Project)]; format: functional
[13] = target: Luciferin 4-monooxygenase (Photinus pyralis, UniProt P08659); assay: firefly luciferase enzyme inhibitors, dose response, biochemical, luminescence (AID 1891)
SN12K1 = assay: cells; format: functional; details: Homo sapiens
[14] = target: T4, Heat shock factor protein 1 (Mus musculus, UniProt P38532); assay: inhibition of MG132-induced HSE-luciferase signal, confirmation, cell-based, NIH3T3, luminescence, dose retest (AID 2382); format: functional;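 note: NIH3T3 fibroblasts with HSF1-driven luciferase reporter stressed by proteasome inhibitor MG132; luminescence from HSF1-driven luciferase expression after 8 hours of MG132 stress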
T4 sequence (P38532 whole entry): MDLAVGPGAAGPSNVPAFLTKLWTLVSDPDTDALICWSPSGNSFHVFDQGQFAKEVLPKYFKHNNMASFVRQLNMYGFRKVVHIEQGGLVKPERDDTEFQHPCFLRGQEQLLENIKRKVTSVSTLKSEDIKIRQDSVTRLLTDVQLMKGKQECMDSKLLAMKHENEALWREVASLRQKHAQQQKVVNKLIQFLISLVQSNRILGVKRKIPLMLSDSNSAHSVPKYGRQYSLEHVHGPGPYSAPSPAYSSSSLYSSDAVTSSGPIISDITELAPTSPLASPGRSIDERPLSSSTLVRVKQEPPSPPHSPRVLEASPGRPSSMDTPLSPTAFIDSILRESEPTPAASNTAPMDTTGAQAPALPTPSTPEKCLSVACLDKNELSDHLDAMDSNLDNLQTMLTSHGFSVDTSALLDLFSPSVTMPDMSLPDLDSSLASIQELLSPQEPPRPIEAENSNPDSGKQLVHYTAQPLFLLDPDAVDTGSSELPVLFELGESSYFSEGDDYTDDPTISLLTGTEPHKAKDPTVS

Glucose-6-phosphate 1-dehydrogenase, sequence (P11413 whole entry): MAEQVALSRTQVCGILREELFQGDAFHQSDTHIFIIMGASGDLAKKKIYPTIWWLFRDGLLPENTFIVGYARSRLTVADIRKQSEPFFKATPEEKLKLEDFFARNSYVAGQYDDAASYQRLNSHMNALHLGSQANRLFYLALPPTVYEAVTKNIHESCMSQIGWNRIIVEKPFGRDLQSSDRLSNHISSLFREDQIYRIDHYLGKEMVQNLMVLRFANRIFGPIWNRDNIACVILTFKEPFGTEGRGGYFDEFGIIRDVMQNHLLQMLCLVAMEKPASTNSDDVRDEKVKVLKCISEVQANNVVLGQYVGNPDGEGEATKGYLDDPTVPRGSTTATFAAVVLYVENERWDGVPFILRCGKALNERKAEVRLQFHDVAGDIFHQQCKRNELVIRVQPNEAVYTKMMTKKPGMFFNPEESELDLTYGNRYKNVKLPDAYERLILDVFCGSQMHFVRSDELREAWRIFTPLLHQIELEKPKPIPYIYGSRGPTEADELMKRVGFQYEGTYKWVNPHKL
Luciferin 4-monooxygenase, sequence (P08659 whole entry): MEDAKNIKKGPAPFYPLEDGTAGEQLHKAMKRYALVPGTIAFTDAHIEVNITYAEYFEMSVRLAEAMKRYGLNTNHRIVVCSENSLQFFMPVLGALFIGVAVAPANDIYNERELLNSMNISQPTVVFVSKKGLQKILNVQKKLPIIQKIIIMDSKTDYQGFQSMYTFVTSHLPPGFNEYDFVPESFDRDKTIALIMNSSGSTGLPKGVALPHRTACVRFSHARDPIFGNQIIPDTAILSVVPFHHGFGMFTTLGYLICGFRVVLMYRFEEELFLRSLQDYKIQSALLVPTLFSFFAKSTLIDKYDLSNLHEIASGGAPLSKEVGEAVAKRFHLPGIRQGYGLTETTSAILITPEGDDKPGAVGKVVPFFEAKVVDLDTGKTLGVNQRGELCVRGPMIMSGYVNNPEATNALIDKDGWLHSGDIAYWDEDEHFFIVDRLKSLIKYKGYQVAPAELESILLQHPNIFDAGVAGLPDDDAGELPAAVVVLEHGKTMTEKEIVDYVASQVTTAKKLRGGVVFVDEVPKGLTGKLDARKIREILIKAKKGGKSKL

With Cc1ccc(-c2nnc(SCC#CCOC(=O)c3ccco3)o2)cc1 the IC50 (cells [1]) was 4.78 µM (active).
With CCOc1ccccc1C(=O)Nc1nnc(SCC(=O)N2CCOCC2)s1 the IC50 (Prothrombin) was > 50 µM (not active).
For CC[C@@H](C)[C@H]([C@H](CC(=O)N1CCC[C@@H]1[C@@H](OC)[C@H](C)C(=O)N[C@H](Cc1ccccc1)c1nccs1)OC)N(C)C(=O)[C@H](NC(=O)[C@@H](C(C)C)N(C)C)C(C)C, the GI50 (P388/ADR) was 0.000425 µM (active) and the GI50 (P388) was 0.000425 µM (active).
With CCOC(=O)N[C@H](C(=O)N1CCC[C@H]1C(=O)NCCc1ccccc1Cl)C1CCCCC1 the IC50 (cells [2]) was > 29.9 µM (inactive), the EC50 (cells [3]) was > 29.9 µM (inactive) and the IC50 [4] was 2.33 µM (active). The EC50 [5] was 1.91 µM (active).
With Cc1ccc2sc(N(CCCN(C)C)C(=O)c3ccc(S(=O)(=O)N(C)C4CCCCC4)cc3)nc2c1C the AC50 [6] was 3.72 µM (active), the EC50 [7] was 0.148 µM (active) and the EC50 [8] was 10.3 µM (active). For the same compound, the AC50 [9] was 18 µM (active).
For CC(C)=N/N=C(\N)SCc1ccccc1, the IC50 (cells [2]) was > 29.9 µM (inactive) and the EC50 (cells [3]) was > 29.9 µM (inactive).
For CC(C)(C)NC(=O)c1cc([N+](=O)[O-])ccc1N1CCCCC1, the IC50 (Prothrombin) was > 50 µM (not active).
With CN(C)c1ccc(C=c2c3ccccc3n3c2c2ccccc2[n+]3C)cc1 the IC50 [10] was > 80 µM (inactive).
For O=C(O)CCc1ccc(-c2ccccc2)n1NC(=O)c1ccco1, the IC50 (Protein skinhead-1) was > 100 µM (inactive).
With CCC(=O)NC(=S)Nc1cccc(NC(=O)c2ccccc2)c1 the IC50 (Prothrombin) was > 50 µM (not active).
With CCS(=O)(=O)N1CC(=O)N2[C@H](CO)[C@@H](c3ccc(-c4ccccc4F)cc3)[C@@H]2C1 the AC50 [11] was 13.6 µM (active).
With O=C(NC(c1ccc(-c2ccccc2)cc1)c1cnccn1)C1CCN(Cc2cccs2)CC1 (configuration not stated) the IC50 (Protein skinhead-1) was > 100 µM (inactive).
For N#C/C(=C\c1ccc(F)cc1)c1nc(-c2ccco2)cs1, the IC50 (Protein skinhead-1) was > 100 µM (inactive).
For Clc1ccc(-c2nc3cc[nH]cc-3n2)cc1, the EC50 [12] was 10 µM (active), the IC50 (cells [2]) was > 29.9 µM (inactive) and the EC50 [13] was 1 µM (active). For the same compound, the EC50 (cells [3]) was > 29.9 µM (inactive), the IC50 [4] was > 29.9 µM (inactive) and the EC50 [5] was > 29.9 µM (inactive).
For COc1ccc2c3c([nH]c2c1)[C@H](CO)N(Cc1ccccc1)CC31CCN(CC2CC2)CC1, the AC50 [11] was 2.62 µM (active).
In the case of O=NN1C(c2ccccc2)C2CCCC(C2=O)C1c1ccccc1 (configuration not stated), the GI50 (P388/ADR) is reported as 22.5 µM (inactive), the GI50 (SN12K1) is reported as 26.5 µM (inactive) and the GI50 (P388) is reported as 36.3 µM (inactive).
With CCCCCn1nnc2c(=O)oc3ccccc3c21 the IC50 (cells [1]) was 2.67 µM (active).
For CCNC1=NN=C(c2cc(C)n(CCc3ccccc3)c2C)CS1, the IC50 (cells [2]) was > 29.9 µM (inactive), the EC50 (cells [3]) was > 29.9 µM (inactive) and the IC50 [4] was 1.06 µM (active). The EC50 [5] was 0.373 µM (active).
For COc1ccc(CC(=O)Nc2cc(S(=O)(=O)N3CCOCC3)ccc2N2CCOCC2)cc1, the IC50 (Protein skinhead-1) was > 100 µM (inactive).
With COc1ccc(C2(CNC(=O)c3ccc(OC)c([N+](=O)[O-])c3)CCCCC2)cc1OC the IC50 [10] was 60.7 µM (inactive).
With COc1ccc(CN2C[C@@H](C)[C@@H](OC)CN(C)C(=O)c3cc(NC(=O)c4nc5ccccc5s4)ccc3OC[C@H]2C)cc1 the AC50 [11] was 6.65 µM (active).
For Oc1nncc(N/N=C/c2ccccc2)c1Cl, the IC50 (cells [2]) was > 29.9 µM (inactive), the EC50 (cells [3]) was > 29.9 µM (inactive) and the IC50 [4] was 0.981 µM (active). The EC50 [5] was 0.29 µM (active).
With Cc1cnc(NC(=O)c2nn(C)cc2[N+](=O)[O-])s1 the AC50 [9] was 20.6 µM (active).
For O=C(N[C@H](C(=O)N1CCC[C@H]1C(=O)NCCc1ccccc1Cl)C1CCCCC1)c1ccccc1, the IC50 (cells [2]) was > 29.9 µM (inactive), the EC50 (cells [3]) was > 29.9 µM (inactive) and the IC50 [4] was 5.04 µM (active). For the same compound, the EC50 [5] was 5.2 µM (active).
For CCCCCCCCCCCCCCCCCCOCC(COP(=O)([O-])OCC[N+](C)(C)C)OC (configuration not stated) [EDELFOSINE], the GI50 (P388/ADR) was 4.07 µM (inactive), the GI50 (SN12K1) was 11.2 µM (inactive) and the GI50 (P388) was 2.65 µM (inactive).
With COC(=O)[C@@]12C[C@@H](CC(=O)NCCc3ccccc3OC)C(=O)N(Cc3ccc4c(c3)OCO4)C1=CCC(C)(C)C2 the IC50 (cells [2]) was > 29.9 µM (inactive), the EC50 (cells [3]) was > 29.9 µM (inactive) and the IC50 [4] was 6.93 µM (active). The EC50 [5] was 2.4 µM (active).
In the case of COC1/C=C/O[C@@]2(C)Oc3c(C)c(O)c4c(O)c(cc(O)c4c3C2=O)NC(=O)/C(C)=C\C=C\[C@H](C)C(O)[C@@H](C)[C@@H](O)[C@@H](C)[C@H](OC(C)=O)[C@@H]1C (some centres not stated), the GI50 (P388/ADR) is reported as 10.9 µM (inactive), the GI50 (SN12K1) is reported as 15.2 µM (inactive) and the GI50 (P388) is reported as 5.41 µM (inactive).
For Brc1ccc(-c2csc(-c3ccncc3)n2)cc1, the IC50 (Protein skinhead-1) was 51.6 µM (inactive).
For CSc1nc2c(ncn2C2OC(CO)C(O)C(O)C2O)c(=O)n1C (configuration not stated), the GI50 (P388/ADR) was > 10 µM (inactive), the GI50 (SN12K1) was > 100 µM (inactive) and the GI50 (P388) was > 100 µM (inactive).
With O=[N+]([O-])c1ccc(/C=C/c2ccc(/N=N/c3ccc(/C=C/c4ccc([N+](=O)[O-])cc4S(=O)(=O)O)c(S(=O)(=O)O)c3)cc2S(=O)(=O)O)c(S(=O)(=O)O)c1 the GI50 (P388/ADR) was > 100 µM (inactive), the GI50 (SN12K1) was > 100 µM (inactive) and the GI50 (P388) was > 100 µM (inactive).
In the case of NCCN1C(=O)S/C(=C\c2ccc3c(c2)OCO3)C1=O, the AC50 [9] is reported as 22.3 µM (active) and the EC50 [14] is reported as 1.48 µM (active).
